Assay results: patent publication US20140274688A1, “MOLECULES HAVING CERTAIN PESTICIDAL UTILITIES, AND INTERMEDIATES, COMPOSITIONS, AND PROCESSES RELATED THERETO” (DOW AGROSCIENCES LLC, priority 2013, published 2014)

Experiments:
[1] = test system: Beet Armyworm (Spodoptera exigua) ("BAW"); experiment: Bioassay on Beet Armyworm (BAW), 128-well diet tray assay, percent mortality; format: in vivo; conditions: for BAW rating (percent mortality class): Beet Armyworm, 128-well diet tray assay; for pest or weed control at 50 µg/cm2: Spodoptera exigua, read-out: BAW
Text: (§1) Bioassays on Beet Armyworm (Spodoptera exigua) (“BAW”) and Cabbage Looper (Trichoplusia ni) (“CL”)
(§2) BAW has few effective parasites, diseases, or predators to lower its population. BAW infests many weeds, trees, grasses, legumes, and field crops. In various places, it is of economic concern upon asparagus, cotton, corn, soybeans, tobacco, alfalfa, sugar beets, peppers, tomatoes, potatoes, onions, peas, sunflowers, and citrus, among other plants. The Cabbage Looper is a member of the moth family Noctuidae. It is found throughout the world. It is attacks cabbage, cauliflower, broccoli, Brussel sprouts, tomatoes, cucumbers, potatoes, kale, turnips, mustard, peppers, eggplant, watermelons, melons, squash, cantaloupe, peas, beans, collards, lettuce, spinach, celery, parsley, beets, peas, alfalfa, soybeans, and cotton. This species is very destructive to plants due to its voracious consumption of leaves. In the case of cabbage, however, they feed not only on the wrapper leaves, but also may bore into the developing head. The larvae consume three times their weight in plant material daily. The feeding sites are marked by large accumulations of sticky, wet fecal material.
(§3) Consequently, because of the above factors control of these pests is important.
(§4) Certain molecules disclosed in this document were tested against BAW and CEW using procedures described in the following examples. In the reporting of the results, the “BAW & CL Rating Table” was used (See Table Section).
(§5) Trays were covered with a clear self-adhesive cover and held at 25° C., 14:10 light-dark for five to seven days. Percent mortality was recorded for the larvae in each well; activity in the eight wells was then averaged. The results are indicated in the table entitled “Table ABC: Biological Results” (See Table Section).

[2] = test system: Cabbage Looper (Trichoplusia ni) ("CL"); experiment: Bioassay on Cabbage Looper (CL), 128-well diet tray assay, percent mortality; format: in vivo; conditions: for CL rating (percent mortality class): Cabbage Looper, 128-well diet tray assay; for pest or weed control at 50 µg/cm2: Trichoplusia ni, read-out: CL
Text: as §1, §2, §3, §4
Bioassays on Cabbage Looper in CL
as §5

SMILES	BAW rating (percent mortality class) [1]	CL rating (percent mortality class) [2]	pest or weed control at 50 µg/cm2 [1] [%]	pest or weed control at 50 µg/cm2 [2] [%]
CCc1ccc(C)cc1NC(=S)NC(=O)NC1CC1c1ccc(-c2ncn(-c3ccc(OC(F)(F)F)cc3)n2)cc1 (centres unmarked) [F27, N-(2-ethyl-5-methylphenyl)-N′-[2-(4-{1-[4-(trifluoromethoxy)phenyl]-1H-1,2,4-triazol-3-yl}phenyl)cyclopropyl]dicarbonimidothioic diamide]	A (50-100)	A (50-100)	–	–
Cc1ccc(C(C)C)c(NC(=S)NC(=O)NC2CC2c2ccc(-c3ncn(-c4ccc(OC(F)(F)F)cc4)n3)cc2)c1 (centres unmarked) [F28, N-[5-methyl-2-(propan-2-yl)phenyl]-N′-[2-(4-{1-[4-(trifluoromethoxy)phenyl]-1H-1,2,4-triazol-3-yl}phenyl)cyclopropyl]dicarbonimidothioic diamide]	A (50-100)	A (50-100)	–	–
CCCc1ccccc1N1C(=O)CS/C1=N\C(=O)NC1CC1c1ccc(-c2ncn(-c3ccc(OC(F)(F)F)cc3)n2)cc1 (centres unmarked) [F30, (Z)-1-(4-oxo-3-(2-propylphenyl)thiazolidin-2-ylidene)-3-(2-(4-(1-(4-(trifluoromethoxy)phenyl)-1H-1,2,4-triazol-3-yl)phenyl)cyclopropyl)urea]	A (50-100)	A (50-100)	–	–
CCc1cccc(C)c1N1C(=O)CS/C1=N\C(=O)NC1CC1c1ccc(-c2ncn(-c3ccc(OC(F)(F)F)cc3)n2)cc1 (centres unmarked) [F31, (Z)-1-(3-(2-ethyl-6-methylphenyl)-4-oxothiazolidin-2-ylidene)-3-(2-(4-(1-(4-(trifluoromethoxy)phenyl)-1H-1,2,4-triazol-3-yl)phenyl)cyclopropyl)urea]	A (50-100)	A (50-100)	–	–
Cc1cccc(C)c1N1C(=O)CS/C1=N\C(=O)NC1CC1c1ccc(-c2ncn(-c3ccc(OC(F)(F)F)cc3)n2)cc1 (centres unmarked) [F32, (Z)-1-(3-(2,6-dimethylphenyl)-4-oxothiazolidin-2-ylidene)-3-(2-(4-(1-(4-(trifluoromethoxy)phenyl)-1H-1,2,4-triazol-3-yl)phenyl)cyclopropyl)urea]	A (50-100)	A (50-100)	–	–
CCc1ccc(C)cc1N1C(=O)CS/C1=N\C(=O)NC1CC1c1ccc(-c2ncn(-c3ccc(OC(F)(F)F)cc3)n2)cc1 (centres unmarked) [F33, (Z)-1-(3-(2-ethyl-5-methylphenyl)-4-oxothiazolidin-2-ylidene)-3-(2-(4-(1-(4-(trifluoromethoxy)phenyl)-1H-1,2,4-triazol-3-yl)phenyl)cyclopropyl)urea]	A (50-100)	A (50-100)	–	–
Cc1ccc(C(C)C)c(N2CCS/C2=N\C(=O)NC2CC2c2ccc(-c3ncn(-c4ccc(OC(F)(F)F)cc4)n3)cc2)c1 (centres unmarked) [F34, (Z)-1-(3-(2-isopropyl-5-methylphenyl)thiazolidin-2-ylidene)-3-(2-(4-(1-(4-(trifluoromethoxy)-phenyl)-1H-1,2,4-triazol-3-yl)phenyl)cyclopropyl)urea]	A (50-100)	A (50-100)	–	–
Cc1ccccc1N1C(=O)CS/C1=N\C(=O)NCc1ccc(-c2ncn(-c3ccc(OC(F)(F)F)cc3)n2)cc1 [P1, (Z)-1-(4-oxo-3-(o-tolyl)thiazolidin-2-ylidene)-3-(4-(1-(4-(trifluoromethoxy)phenyl)-1H-1,2,4-triazol-3-yl)benzyl)urea]	–	–	50 to 100	50 to 100
CCc1ccccc1N1C(=O)CS/C1=N\C(=O)NCc1ccc(-c2ncn(-c3ccc(OC(F)(F)F)cc3)n2)cc1 [P2, (Z)-1-(3-(2-ethylphenyl)-4-oxothiazolidin-2-ylidene)-3-(4-(1-(4-(trifluoromethoxy)phenyl)-1H-1,2,4-triazol-3-yl)benzyl)urea]	–	–	50 to 100	50 to 100
CC(C)c1cc(F)ccc1N1C(=O)CS/C1=N\C(=O)NCc1ccc(-c2ncn(-c3ccc(OC(F)(F)F)cc3)n2)cc1 [P3, (Z)-1-(3-(4-fluoro-2-isopropylphenyl)-4-oxothiazolidin-2-ylidene)-3-(4-(1-(4-(trifluoromethoxy)phenyl)-1H-1,2,4-triazol-3-yl)benzyl)urea]	–	–	50 to 100	50 to 100
Cc1ccc(N2C(=O)CS/C2=N\C(=O)NCc2ccc(-c3ncn(-c4ccc(OC(F)(F)F)cc4)n3)cc2)c(C(C)C)c1 [P5, (Z)-1-(3-(2-isopropyl-4-methylphenyl)-4-oxothiazolidin-2-ylidene)-3-(4-(1-(4-(trifluoromethoxy)phenyl)-1H-1,2,4-triazol-3-yl)benzyl)urea]	–	–	50 to 100	50 to 100
COc1ccc(N2C(=O)CS/C2=N\C(=O)NCc2ccc(-c3ncn(-c4ccc(OC(F)(F)F)cc4)n3)cc2)c(C)c1 [P6, (Z)-1-(3-(4-methoxy-2-methylphenyl)-4-oxothiazolidin-2-ylidene)-3-(4-(1-(4-(trifluoromethoxy)phenyl)-1H-1,2,4-triazol-3-yl)benzyl)urea]	–	–	50 to 100	50 to 100
CCc1ccc(C)cc1N1C(=O)CS/C1=N\C(=O)NCc1ccc(-c2ncn(-c3ccc(OC(F)(F)F)cc3)n2)cc1 [P7, (Z)-1-(3-(2-ethyl-5-methylphenyl)-4-oxothiazolidin-2-ylidene)-3-(4-(1-(4-(trifluoromethoxy)phenyl)-1H-1,2,4-triazol-3-yl)benzyl)urea]	–	–	50 to 100	50 to 100
CCCc1ccc(C)cc1N1C(=O)CS/C1=N\C(=O)NCc1ccc(-c2ncn(-c3ccc(OC(F)(F)F)cc3)n2)cc1 [P8, (Z)-1-(3-(5-methyl-2-propylphenyl)-4-oxothiazolidin-2-ylidene)-3-(4-(1-(4-(trifluoromethoxy)phenyl)-1H-1,2,4-triazol-3-yl)benzyl)urea]	–	–	50 to 100	50 to 100
CC(C)c1ccccc1N1C(=O)CS/C1=N\C(=O)NCc1ccc(-c2ncn(-c3ccc(C(F)(F)F)cc3)n2)cc1 [P14, (Z)-1-(3-(2-isopropylphenyl)-4-oxothiazolidin-2-ylidene)-3-(4-(1-(4-(trifluoromethyl)phenyl)-1H-1,2,4-triazol-3-yl)benzyl)urea]	–	–	50 to 100	50 to 100
Cc1ccc(N2C(=O)CS/C2=N\C(=O)NCc2ccc(-c3ncn(-c4ccc(C(F)(F)F)cc4)n3)cc2)c(C(C)C)c1 [P15, (Z)-1-(3-(2-isopropyl-4-methylphenyl)-4-oxothiazolidin-2-ylidene)-3-(4-(1-(4-(trifluoromethyl)phenyl)-1H-1,2,4-triazol-3-yl)benzyl)urea]	–	–	50 to 100	50 to 100
Cc1ccc(C(C)C)c(N2/C(=N/C(=O)NCCc3ccc(-c4ncn(-c5ccc(OC(F)(F)F)cc5)n4)cc3)SCC2C)c1 (centres unmarked) [P58, (Z)-1-(3-(2-isopropyl-5-methylphenyl)-4-methylthiazolidin-2-ylidene)-3-(4-(1-(4-(trifluoromethoxy)phenyl)-1H-1,2,4-triazol-3-yl)phenethyl)urea]	–	–	50 to 100	50 to 100
Cc1ccc(C(C)C)c(N2CCCS/C2=N\C(=O)NCCc2ccc(-c3ncn(-c4ccc(OC(F)(F)F)cc4)n3)cc2)c1 [P59, (Z)-1-(3-(2-isopropyl-5-methylphenyl)-1,3-thiazinan-2-ylidene)-3-(4-(1-(4-(trifluoromethoxy)phenyl)-1H-1,2,4-triazol-3-yl)phenethyl)urea]	–	–	50 to 100	50 to 100
Cc1ccc(C(C)C)c(N2CC(C)CS/C2=N\C(=O)NCCc2ccc(-c3ncn(-c4ccc(OC(F)(F)F)cc4)n3)cc2)c1 (centres unmarked) [P64, (Z)-1-(3-(2-isopropyl-5-methylphenyl)-5-methyl-1,3-thiazinan-2-ylidene)-3-(4-(1-(4-(trifluoromethoxy)phenyl)-1H-1,2,4-triazol-3-yl)phenethyl)urea]	–	–	50 to 100	50 to 100
Cc1ccc(C(C)C)c(N2C(=O)CS/C2=N\C(=O)NC(C)C(C)c2ccc(-c3ncn(-c4ccc(OC(F)(F)F)cc4)n3)cc2)c1 (centres unmarked) [P66, (Z)-1-(3-(2-isopropyl-5-methylphenyl)-4-oxothiazolidin-2-ylidene)-3-(3-(4-(1-(4-(trifluoromethoxy)phenyl)-1H-1,2,4-triazol-3-yl)phenyl)butan-2-yl)urea]	–	–	50 to 100	50 to 100
Cc1ccccc1N1C(=O)CS/C1=N\C(=O)NCCc1cccc(-c2ncn(-c3ccc(OC(F)(F)F)cc3)n2)c1 [P74, (Z)-1-(4-oxo-3-(o-tolyl)thiazolidin-2-ylidene)-3-(3-(1-(4-(trifluoromethoxy)phenyl)-1H-1,2,4-triazol-3-yl)phenethyl)urea]	–	–	50 to 100	50 to 100
CCc1ccccc1N1C(=O)CS/C1=N\C(=O)NCCc1cccc(-c2ncn(-c3ccc(OC(F)(F)F)cc3)n2)c1 [P75, (Z)-1-(3-(2-ethylphenyl)-4-oxothiazolidin-2-ylidene)-3-(3-(1-(4-(trifluoromethoxy)phenyl)-1H-1,2,4-triazol-3-yl)phenethyl)urea]	–	–	50 to 100	50 to 100
